Laboratory results reported in patent US20250205344A1, “2,4-DIOXOTETRAHYDROPYRIMIDINYL DERATIVES AS DEGRONS IN PROTACS” (GLAXOSMITHKLINE INTELLECTUAL PROPERTY DEVELOPMENT LIMITED, priority 2022, published 2025).

Tests used:
[1] = molecular target: T1, Androgen Receptor (Homo sapiens, UniProt P10275, T878A); experiment: Androgen Receptor Degradation Assay (Nano-Glo HiBiT); assay type: cell-based; settings: 18 h, HiBiT-tagged AR in human LnCaP cells; for Dmax: LNCaP, read-out: mean asymptote max
T1 construct: the AR gene was modified, using CRISPR/Cas9 editing, so the expressed AR protein included an 11 amino acid HiBiT tag; endogenous in cells; host or cells: clonal LnCaP-derived line, AR gene edited by CRISPR/Cas9
T1 sequence (P10275 whole entry T878A): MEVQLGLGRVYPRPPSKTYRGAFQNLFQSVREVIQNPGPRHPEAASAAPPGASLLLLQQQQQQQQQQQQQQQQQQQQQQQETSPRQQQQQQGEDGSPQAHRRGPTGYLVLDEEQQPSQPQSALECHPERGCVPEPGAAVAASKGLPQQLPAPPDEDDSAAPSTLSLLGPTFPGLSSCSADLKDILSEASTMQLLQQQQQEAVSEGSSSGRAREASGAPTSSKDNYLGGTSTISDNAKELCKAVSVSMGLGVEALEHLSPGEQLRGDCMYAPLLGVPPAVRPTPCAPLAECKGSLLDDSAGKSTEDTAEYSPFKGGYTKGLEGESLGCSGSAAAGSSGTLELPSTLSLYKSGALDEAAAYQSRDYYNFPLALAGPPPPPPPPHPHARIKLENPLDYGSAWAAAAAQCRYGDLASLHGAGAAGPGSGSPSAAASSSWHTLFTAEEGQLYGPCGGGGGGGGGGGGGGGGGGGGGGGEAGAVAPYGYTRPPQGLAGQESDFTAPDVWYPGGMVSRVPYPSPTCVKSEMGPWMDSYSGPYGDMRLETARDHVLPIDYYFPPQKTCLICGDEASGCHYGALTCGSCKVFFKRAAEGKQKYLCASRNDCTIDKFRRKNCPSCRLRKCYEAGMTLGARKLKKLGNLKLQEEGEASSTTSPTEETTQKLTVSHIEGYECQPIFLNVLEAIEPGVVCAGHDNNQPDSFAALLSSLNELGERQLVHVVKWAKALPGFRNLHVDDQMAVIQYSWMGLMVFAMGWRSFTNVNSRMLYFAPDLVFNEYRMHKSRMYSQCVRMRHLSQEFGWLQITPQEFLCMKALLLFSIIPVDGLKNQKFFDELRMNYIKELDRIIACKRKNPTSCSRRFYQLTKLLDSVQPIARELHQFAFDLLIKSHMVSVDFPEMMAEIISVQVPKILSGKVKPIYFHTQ
T1 sequence (Q96SW2 whole entry partner): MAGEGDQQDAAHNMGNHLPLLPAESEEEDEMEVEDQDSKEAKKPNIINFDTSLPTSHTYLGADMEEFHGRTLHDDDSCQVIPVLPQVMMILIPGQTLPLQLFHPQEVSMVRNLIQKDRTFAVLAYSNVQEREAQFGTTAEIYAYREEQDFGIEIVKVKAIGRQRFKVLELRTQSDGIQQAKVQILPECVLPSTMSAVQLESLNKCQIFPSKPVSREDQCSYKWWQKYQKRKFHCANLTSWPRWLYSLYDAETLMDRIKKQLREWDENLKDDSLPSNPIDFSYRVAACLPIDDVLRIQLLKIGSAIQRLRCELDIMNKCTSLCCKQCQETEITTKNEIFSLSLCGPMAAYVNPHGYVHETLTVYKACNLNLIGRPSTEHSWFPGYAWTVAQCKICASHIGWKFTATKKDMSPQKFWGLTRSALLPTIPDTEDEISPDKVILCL
T1 sequence (Q16531 whole entry partner): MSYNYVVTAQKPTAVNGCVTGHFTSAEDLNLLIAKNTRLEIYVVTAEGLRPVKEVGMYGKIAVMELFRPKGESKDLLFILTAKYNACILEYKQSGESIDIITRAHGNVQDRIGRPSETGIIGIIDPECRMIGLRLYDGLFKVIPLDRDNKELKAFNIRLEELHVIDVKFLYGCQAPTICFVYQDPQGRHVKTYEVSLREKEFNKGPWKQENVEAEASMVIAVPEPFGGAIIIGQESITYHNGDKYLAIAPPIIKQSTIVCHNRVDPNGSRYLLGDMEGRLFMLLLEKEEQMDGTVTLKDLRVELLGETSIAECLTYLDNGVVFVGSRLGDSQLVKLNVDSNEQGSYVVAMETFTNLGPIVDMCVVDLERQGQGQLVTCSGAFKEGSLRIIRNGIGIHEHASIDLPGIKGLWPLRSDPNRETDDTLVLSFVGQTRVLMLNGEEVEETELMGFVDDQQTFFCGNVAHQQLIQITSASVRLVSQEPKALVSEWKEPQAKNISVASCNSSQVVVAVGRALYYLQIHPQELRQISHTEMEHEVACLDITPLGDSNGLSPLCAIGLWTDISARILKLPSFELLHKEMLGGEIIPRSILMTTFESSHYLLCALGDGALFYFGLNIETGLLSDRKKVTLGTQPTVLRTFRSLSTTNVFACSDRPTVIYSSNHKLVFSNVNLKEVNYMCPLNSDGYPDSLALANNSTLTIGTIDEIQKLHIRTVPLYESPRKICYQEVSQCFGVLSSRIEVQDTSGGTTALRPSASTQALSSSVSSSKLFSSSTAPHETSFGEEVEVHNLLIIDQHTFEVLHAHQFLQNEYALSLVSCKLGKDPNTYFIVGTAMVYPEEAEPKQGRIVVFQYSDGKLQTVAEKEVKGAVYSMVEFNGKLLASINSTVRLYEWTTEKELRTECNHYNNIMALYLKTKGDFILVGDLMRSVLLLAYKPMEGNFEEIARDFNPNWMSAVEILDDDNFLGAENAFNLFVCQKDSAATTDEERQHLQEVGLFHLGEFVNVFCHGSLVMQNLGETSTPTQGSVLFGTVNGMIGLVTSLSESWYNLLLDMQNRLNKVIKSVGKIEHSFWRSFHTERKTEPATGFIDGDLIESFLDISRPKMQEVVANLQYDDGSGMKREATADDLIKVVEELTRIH
How it was run: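 LnCaP cells with CRISPR-knocked-in N-terminal HiBiT-tagged AR (10,000/well) treated 18 h at 37 °C with PROTACs over 11 threefold concentrations; lytic HiBiT luminescence normalised to DMSO (0%) and cell-free (100%) controls. Relative DC50 = 4-parameter fit inflection; absolute DC50 = 50% degradation interpolation; Dmax = maximum observed degradation.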

[2] = molecular target: T2, Full length Cereblon protein (6His tev Cereblon/6His tev DDB1ΔBPB) (Homo sapiens, UniProt Q96SW2); experiment: Cereblon Binding Assay (TR-FRET); settings: 5 nM protein, 50 nM Alexa647-lenalidomide ligand, read-out: Mean pIC50 (converted)
T2 construct: Full length Cereblon protein (6His tev Cereblon/6His tev DDB1ΔBPB) was expressed and purified from E. coli; made in house; host or cells: E. coli
T2 sequence (Q96SW2 whole entry, stated change not applied): as the sequence (Q96SW2 whole entry partner) above
Method: Full length Cereblon protein (6His tev Cereblon/6His tev DDB1ΔBPB) was expressed and purified from E. coli to monitor compound binding. […] A Thermo Scientific Multidrop Combi was used to dispense 5 μL of 10 nM protein in assay buffer of 50 mM
HEPES, 150 mM NaCl, 5% glycerol, 1 mM DTT and 1 mM CHAPS, pH 7.4, in the presence of 100 nM fluorescent ligand (Final assay concentrations of 5 nM protein and 50 nM ligand). After equilibrating for 15 min in the dark at room temperature a 5 μL addition was made of 2 nM europium chelate labelled anti-6His antibody (Perkin Elmer, W1024, AD0111) in assay buffer (1 nM FAC). […] TR-FRET ratio data was normalised to high (DMSO) and low (reaction in the absence of protein) controls and pIC50 values determined for each of the compounds tested by fitting the fluorescence ratio data to a four parameter model:
[formula] • where ‘a’ is the minimum, ‘b’ is the maximum, ‘c’ is the pIC50 and ‘d’ is the Hill slope.

Structure (SMILES)	Dmax [1] [%]	mean relative pDC50 [1]	IC50 [2] [nM]
CC1(C)[C@H](NC(=O)c2ncc(N3CCC(CN4CCC(n5ccc6c(N7CCC(=O)NC7=O)ccnc65)CC4)CC3)cn2)C(C)(C)[C@H]1Oc1cnc(C#N)c(Cl)c1 [EAR269, N-((1r,3r)-3-((5-Chloro-6-cyanopyridin-3-yl)oxy)-2,2,4,4-tetramethylcyclobutyl)-5-(4-((4-(4-(2,4-dioxotetrahydropyrimidin-1(2H)-yl)-1H-pyrrolo[2,3-b]pyridin-1-yl)piperidin-1-yl)methyl)piperidin-1-yl)pyrimidine-2-carboxamide]	≥ 50	–	–
CC1(C)[C@H](NC(=O)c2ncc(N3CCC(CN4CCC(n5ncc6c(N7CCC(=O)NC7=O)ccnc65)CC4)CC3)cn2)C(C)(C)[C@H]1Oc1ccc(C#N)c(Cl)c1 [EAR272, N-((1r,3r)-3-(3-Chloro-4-cyanophenoxy)-2,2,4,4-tetramethylcyclobutyl)-5-(4-((4-(4-(2,4-dioxotetrahydropyrimidin-1(2H)-yl)-1H-pyrazolo[3,4-b]pyridin-1-yl)piperidin-1-yl)methyl)piperidin-1-yl)pyrimidine-2-carboxamide]	≥ 50	–	–
CC1(C)[C@H](NC(=O)c2ncc(N3CCC(CN4CCC(n5ncc6c(N7CCC(=O)NC7=O)nccc65)CC4)CC3)cn2)C(C)(C)[C@H]1Oc1ccc(C#N)c(Cl)c1 [EAR273, N-((1r,3r)-3-(3-Chloro-4-cyanophenoxy)-2,2,4,4-tetramethylcyclobutyl)-5-(4-((4-(4-(2,4-dioxotetrahydropyrimidin-1(2H)-yl)-1H-pyrazolo[4,3-c]pyridin-1-yl)piperidin-1-yl)methyl)piperidin-1-yl)pyrimidine-2-carboxamide]	≥ 50	5.67	–
CC(C)n1ccc2c(N3CCC(=O)NC3=O)cc(C(=O)N3CCN(CCC4CCN(c5ccc(NC(=O)N6C[C@H](C)N(c7ccc(C#N)c(Cl)c7)C[C@H]6C)cn5)CC4)CC3)cc21 [EAR 118, (2R,5S)-4-(3-Chloro-4-cyanophenyl)-N-(6-(4-(2-(4-(4-(2,4-dioxotetrahydropyrimidin-1(2H)-yl)-1-isopropyl-1H-indole-6-carbonyl)piperazin-1-yl)ethyl)piperidin-1-yl)pyridin-3-yl)-2,5-dimethylpiperazine-1-carboxamide]	≥ 50	5.72	–
O=C1CCN(c2cncc3c2ccn3C2CCNCC2)C(=O)N1 [ECB6, 1-(1-(piperidin-4-yl)-1H-pyrrolo[2,3-c]pyridin-4-yl)dihydropyrimidine-2,4(1H,3H)-dione]	–	–	25.1
O=C1CCN(c2nccc3c2cnn3C2CCNCC2)C(=O)N1 [ECB7, 1-(1-(piperidin-4-yl)-1H-pyrazolo[4,3-c]pyridin-4-yl)dihydropyrimidine-2,4(1H,3H)-dione]	–	–	79.4
O=C1CCN(c2cncc3c2cnn3C2CCNCC2)C(=O)N1 [ECB8, 1-(1-(Piperidin-4-yl)-1H-pyrazolo[3,4-c]pyridin-4-yl)dihydropyrimidine-2,4(1H,3H)-dione]	–	–	251
O=C1CCN(c2cc(Cl)cc3c2ccn3C2CCNCC2)C(=O)N1 [ECB9, 1-(6-Chloro-1-(piperidin-4-yl)-1H-indol-4-yl)dihydropyrimidine-2,4(1H,3H)-dione]	–	–	7.94
O=C1CCN(c2cc(F)cc3c2cnn3C2CCNCC2)C(=O)N1 [ECB10, 1-(6-Fluoro-1-(piperidin-4-yl)-1H-indazol-4-yl)dihydropyrimidine-2,4(1H,3H)-dione]	–	–	200
CC(C)n1ccc2c(N3CCC(=O)NC3=O)cc(C(=O)N3CCNCC3)cc21 [ECB11, 1-(1-isopropyl-6-(piperazine-1-carbonyl)-1H-indol-4-yl)dihydropyrimidine-2,4(1H,3H)-dione]	–	–	2.51
CC(C)n1ccc2c(N3CCC(=O)NC3=O)cc(C(=O)N(C)C3CCNCC3)cc21 [ECB15, 4-(2,4-Dioxotetrahydropyrimidin-1(2H)-yl)-1-isopropyl-N-methyl-N-(piperidin-4-yl)-1H-indole-6-carboxamide]	–	–	25.1
CC(C)n1ccc2c(N3CCC(=O)NC3=O)cc(C(=O)N(C)CC3CCNCC3)cc21 [ECB16, 4-(2,4-Dioxotetrahydropyrimidin-1(2H)-yl)-1-isopropyl-N-methyl-N-(piperidin-4-ylmethyl)-1H-indole-6-carboxamide]	–	–	31.6
O=C1CCN(c2ncnc3c2ccn3C2CCNCC2)C(=O)N1 [ECB17, 1-(7-(piperidin-4-yl)-7H-pyrrolo[2,3-d]pyrimidin-4-yl)dihydropyrimidine-2,4(1H,3H)-dione]	–	–	316
O=C1CCN(c2cccc3c2cnn3C2CCNCC2)C(=O)N1 [ECB18, 1-(1-(Piperidin-4-yl)-1H-indazol-4-yl)dihydropyrimidine-2,4(1H,3H)-dione]	–	–	10
O=C1CCN(c2ccnc3c2cnn3C2CCNCC2)C(=O)N1 [ECB19, 1-(1-(piperidin-4-yl)-1H-pyrazolo[3,4-b]pyridin-4-yl)dihydropyrimidine-2,4(1H,3H)-dione]	–	–	380
O=C1CCN(c2nccc3c2ccn3C2CCNCC2)C(=O)N1 [ECB25, 1-(1-(piperidin-4-yl)-1H-pyrrolo[3,2-c]pyridin-4-yl)dihydropyrimidine-2,4(1H,3H)-dione]	–	–	229
O=C1CCN(c2cccc3c2ccn3C[C@]2(F)CCCNC2)C(=O)N1 [ECB29, (S)-1-(1-((3-fluoropiperidin-3-yl)methyl)-1H-indol-4-yl)dihydropyrimidine-2,4(1H,3H)-dione]	–	–	120
O=C1CCN(c2cc(C(F)(F)F)cc3c2cnn3C2CCNCC2)C(=O)N1 [ECB30, 1-(1-(piperidin-4-yl)-6-(trifluoromethyl)-1H-indazol-4-yl)dihydropyrimidine-2,4(1H,3H)-dione]	–	–	245
O=C1CCN(c2cc(C(F)(F)F)cc3c2ccn3C2CCNCC2)C(=O)N1 [ECB37, 1-(1-(piperidin-4-yl)-6-(trifluoromethyl)-1H-indol-4-yl)dihydropyrimidine-2,4(1H,3H)-dione]	–	–	55
O=C1CCN(c2cc(F)cc3c2ccn3C2CCNCC2)C(=O)N1 [ECB44, 1-(6-Fluoro-1-(piperidin-4-yl)-1H-indol-4-yl)dihydropyrimidine-2,4(1H,3H)-dione]	–	–	33.1
Cn1ccc2c(N3CCC(=O)NC3=O)cccc21 [ECB45, 1-(1-Methyl-1H-indol-4-yl)dihydropyrimidine-2,4(1H,3H)-dione]	–	–	100
Cn1ncc2c(N3CCC(=O)NC3=O)cccc21 [ECB46, 1-(1-Methyl-1H-indazol-4-yl)dihydropyrimidine-2,4(1H,3H)-dione]	–	–	309
Cn1ccc2c(N3CCC(=O)NC3=O)nccc21 [ECB47, 1-(1-Methyl-1H-pyrrolo[3,2-c]pyridin-4-yl)dihydropyrimidine-2,4(1H,3H)-dione]	–	–	575
COCCn1ccc2c(N3CCC(=O)NC3=O)cccc21 [ECB48, 1-(1-(2-Methoxyethyl)-1H-indol-4-yl)dihydropyrimidine-2,4(1H,3H)-dione]	–	–	35.5
Cc1ccc(N2CCC(=O)NC2=O)c2ccn(C)c12 [ECB49, 1-(1,7-Dimethyl-1H-indol-4-yl)dihydropyrimidine-2,4(1H,3H)-dione]	–	–	20
CCn1ccc2c(N3CCC(=O)NC3=O)cccc21 [ECB50, 1-(1-Ethyl-1H-indol-4-yl)dihydropyrimidine-2,4(1H,3H)-dione]	–	–	24
CCn1ccc2c(N3CCC(=O)NC3=O)cncc21 [ECB51, 1-(1-Ethyl-1H-pyrrolo[2,3-c]pyridin-4-yl)dihydropyrimidine-2,4(1H,3H)-dione]	–	–	25.1
